These results are taken from ChEMBL document CHEMBL3046182, “Development of a rapid resistance monitoring bioassay for codling moth larvae” (2012).

What all share (assay type): functional
Experiment [1] concerns Cydia pomonella. As to the kind of experiment: Insecticidal activity against po dosed fourth-instar larvae of Cydia pomonella (codling moth) lab-s measured after 4 days.
For experiment [2], the system named is Cydia pomonella. The experiment is described as follows: Insecticidal activity against po dosed Cydia pomonella (codling moth) lab-s neonate measured after 4 days.
For experiment [3], the system named is Cydia pomonella. As to the kind of experiment: Insecticidal activity against Cydia pomonella (codling moth) lab-s neonate compound applied topically measured after 4 days. The settings on record: topical, 96 h.
The test system of experiment [4] is Cydia pomonella. The experiment is described as follows: Insecticidal activity against fourth-instar larvae of Cydia pomonella (codling moth) lab-s compound applied topically measured after 4 days. The settings on record: topical, 96 h.
The test system of experiment [5] is Cydia pomonella. The experiment is described as follows: Insecticidal activity against po dosed 10 day-old larvae of Cydia pomonella (codling moth) Gilbert reared on apple assessed as mortality measured after 4 days.
The test system of experiment [6] is Cydia pomonella. The experiment is described as follows: Insecticidal activity against po dosed fourth-instar larvae of Cydia pomonella (codling moth) Gilbert measured after 4 days.
Experiment [7] concerns Cydia pomonella. As to the kind of experiment: Resistant ratio of LC50 for fourth-instar larvae of Cydia pomonella (codling moth) lab-s to fourth-instar larvae of Cydia pomonella (codling moth) Glibert.
In experiment [8] the test system is Cydia pomonella. As to the kind of experiment: Insecticidal activity against po dosed fourth-instar larvae of Cydia pomonella (codling moth) Holt measured after 4 days.
Experiment [9] concerns Cydia pomonella. The experiment is described as follows: Insecticidal activity against po dosed 11 day-old larvae of spinetoram-selected Cydia pomonella (codling moth) reared on apple assessed as mortality measured after 4 days.
Experiment [10] concerns Cydia pomonella. The experiment is described as follows: Resistant ratio of LC50 for fourth-instar larvae of Cydia pomonella (codling moth) Holt to fourth-instar larvae of Cydia pomonella (codling moth) Glibert.
The subject of experiment [11] is Cydia pomonella. The experiment is described as follows: Insecticidal activity against po dosed Cydia pomonella (codling moth) Holt neonate measured after 4 days.
Experiment [12] deals with Cydia pomonella. As to the kind of experiment: Insecticidal activity against po dosed 10 day-old larvae of Cydia pomonella (codling moth) lab-s measured after 4 days.
Experiment [13] relates to Cydia pomonella. The experiment is described as follows: Insecticidal activity against po dosed 10 day-old larvae of Cydia pomonella (codling moth) lab-s reared on apple assessed as mortality measured after 4 days.
The subject of experiment [14] is Cydia pomonella. As to the kind of experiment: Insecticidal activity against po dosed fourth-instar larvae of Cydia pomonella (codling moth) Clear Creek abandoned measured after 4 days.
The subject of experiment [15] is Cydia pomonella. The experiment is described as follows: Insecticidal activity against po dosed 10 day-old larvae of Cydia pomonella (codling moth) Owensby reared on apple assessed as mortality measured after 4 days.
Experiment [16] relates to Cydia pomonella. The experiment is described as follows: Insecticidal activity against po dosed Cydia pomonella (codling moth) Gilbert neonate measured after 4 days.
In experiment [17] the test system is Cydia pomonella. The experiment is described as follows: Insecticidal activity against po dosed 15 day-old larvae of Cydia pomonella (codling moth) reared on apple assessed as mortality measured after 4 days.
Experiment [18] concerns Cydia pomonella. The experiment is described as follows: Resistant ratio of LC50 for Cydia pomonella (codling moth) lab-s neonate to Cydia pomonella (codling moth) Glibert neonate.
For experiment [19], the system named is Cydia pomonella. The experiment is described as follows: Insecticidal activity against po dosed 15 day-old larvae of Cydia pomonella (codling moth) lab-s reared on apple assessed as mortality measured after 4 days.
The subject of experiment [20] is Cydia pomonella. The experiment is described as follows: Insecticidal activity against po dosed 20 day-old larvae of Cydia pomonella (codling moth) reared on apple assessed as mortality measured after 4 days.
Experiment [21] has as its system Cydia pomonella. As to the kind of experiment: Insecticidal activity against po dosed 10 day-old larvae of Chlorantraniliprole-selected Cydia pomonella (codling moth) reared on apple assessed as mortality measured after 4 days.
The subject of experiment [22] is Cydia pomonella. As to the kind of experiment: Resistant ratio of LC50 for Cydia pomonella (codling moth) Holt neonate to Cydia pomonella (codling moth) Glibert neonate.
Experiment [23] relates to Cydia pomonella. The experiment is described as follows: Insecticidal activity against po dosed Cydia pomonella (codling moth) Clear Creek abandoned neonate measured after 4 days.

Molecules are shown by their SMILES. Values after ≈ are worked out from the molar mass of the structure shown.

With `CCO[C@@H]1[C@@H](OC)[C@H](C)O[C@@H](O[C@@H]2C[C@H]3CC[C@@H]4[C@@H](C=C5C(=O)[C@H](C)[C@@H](O[C@H]6CC[C@H](N(C)C)[C@@H](C)O6)CCC[C@H](CC)OC(=O)C[C@H]54)[C@@H]3C2)[C@@H]1OC.CCO[C@@H]1[C@@H](OC)[C@H](C)O[C@@H](O[C@H]2C[C@H]3[C@@H]4C=C5C(=O)[C@H](C)[C@@H](O[C@H]6CC[C@H](N(C)C)[C@@H](C)O6)CCC[C@H](CC)OC(=O)C[C@H]5[C@@H]4C=C(C)[C@@H]3C2)[C@@H]1OC`, the LC50 in experiment [1] amounted to 0.16 µg/mL; in experiment [2], 0.09 µg/mL.

`C/C(=N\C#N)N(C)Cc1ccc(Cl)nc1` [ACETAMIPRID]: the LC50 amounted to 0.26 µg/mL (≈ 1.17 µM) in experiment [3] and 1.12 µg/mL (≈ 5.03 µM) in experiment [4].

As for `CNC(=O)c1cc(Cl)cc(C)c1NC(=O)c1cc(Br)nn1-c1ncccc1Cl` [CHLORANTRANILIPROLE], the LC50 turned out to be 0.19 µg/mL (≈ 0.393 µM) in [1] and 0.2 µg/mL (≈ 0.414 µM) in experiment [2].

Take `COc1cccc(C(=O)NN(C(=O)c2cc(C)cc(C)c2)C(C)(C)C)c1C` [METHOXYFENOZIDE]: the mortality in experiment [5] amounted to 93.6%; in experiment [9], 83.3%; in experiment [13] it was 99.2%; in [15], 31.3%; in experiment [17] it was 55.1%; in experiment [19] it was 98.4%. Further, the mortality in [20] is on record as 50%; in experiment [21], 100%. Also, the 50% lethal concentration (LC50) came out at 15.2 µg/mL (≈ 41.3 µM) in experiment [6]; 38.7 µg/mL (≈ 105 µM) in [8]; 2.3 µg/mL (≈ 6.24 µM) in [1]; 28.5 µg/mL (≈ 77.3 µM) in experiment [11]; 1.35 µg/mL (≈ 3.66 µM) in experiment [14]; 9.5 µg/mL (≈ 25.8 µM) in experiment [16]. In addition, the values for the LC50 in [2] and in experiment [23] were 1.2 µg/mL (≈ 3.26 µM) and 95 µg/mL (≈ 258 µM), respectively. Besides, the LC99 came to 202 µg/mL in experiment [6]; 5061.9 µg/mL in [8]; 18.27 µg/mL in [1]; 5320.8 µg/mL in experiment [11]; 28.38 µg/mL in [14]; 389.4 µg/mL in experiment [16]. In addition, the LC99 turned out to be 14.15 µg/mL in experiment [2] and 14.57 µg/mL in experiment [23]. In addition, the RatioLC50 worked out at 6.6 in [7], 16.7 in experiment [10], 8 in experiment [18] and 24 in experiment [22]. In experiment [12], the LC95 came out at 10 µg/mL (≈ 27.1 µM).

`O=C(NC(=O)c1c(F)cccc1F)Nc1ccc(OC(F)(F)C(F)OC(F)(F)F)c(Cl)c1` (configuration not stated) [NOVALURON]: the LC50 in experiment [1] was determined as 1.16 µg/mL (≈ 2.35 µM); in experiment [2] it was 1.08 µg/mL (≈ 2.19 µM).
